Results: patent publication US12624068B2, “Exon skipping by peptide nucleic acid derivatives” (OliPass Corporation, priority 2016, dated 2026)
{Fethoc} = N-terminal Fethoc cap; [C(1O2)] = modified PNA monomer acting as cytosine, C(pOq) type, 1O2; [A(5)] = modified PNA monomer acting as adenine, A(p) type, p=5; [A(6)] = modified PNA monomer acting as adenine, A(p) type, p=6; [G(6)] = modified PNA monomer acting as guanine, G(p) type, p=6; {NH2} = C-terminal amide

What was measured:
full-length dystrophin = assay: IHC of skeletal muscles against full-length dystrophin in mdx mice; assay type: in vivo
Source text: [IHC Evaluation of Skeletal Muscles against Full-length Dystrophin] In Weeks 7, 13 and 21, two animals per group were randomly selected and sacrificed to extract muscle tissues. In Week 30, 3 animals were sacrificed per group.
The muscle tissues sampled in Week 7 were subjected to IHC against the full-length dystrophin by cryosection. The muscle tissues sampled in Weeks 13, 21 and 30 were immunostained by paraffin block. IHC by paraffin block yielded images of better quality than IHC by cryosection.
Muscle samples were subjected to immunostaining in series with a primary antibody targeting the C-terminal of mouse dystrophin (Cat. Number sc-816, Santa Cruz) at 1:100 dilution, with a secondary anti-IgG antibody (Cat Number BA-1100, Vector) at 1:200 dilution, and then with Dylight 594-streptavidin (Cat Number SA-5594, Vector, CA, USA) at 1:200 dilution for red fluorescence tagging. The IHC images were captured on a Zeiss slide scanner (in Weeks 13, 21 and 30) or an Olympus fluorescence microscope (in Week 7). […]
The dystrophin IHC images were subjected to quantification for the full-length dystrophin expression by digitally scoring the intensity of red fluorescence in each individual IHC image using the “ImageJ” program (NIH). Individual fluorescence scores were combined by group and muscle type for statistical evaluation against the wild type negative control group.

HIF-1α mRNA = assay: HIF-1α nested qPCR by SYBR Green in HeLa cells; assay type: cell-based, human; conditions: 3 hours
Protocol: “HIF-ASO 2” was evaluated by nested qPCR for its ability to inhibit the expression of the full-length HIF-1α mRNA in HeLa cells as follows. [Cell Culture & ASO Treatment] HeLa cells grown in 60 mm culture dish containing 5 mL medium were treated with “ASO 2” at 0 (negative control), 10, 100 or 1,000 zM (2 culture dishes per each ASO concentration). [RNA Extraction] 3 hours after the ASO treatment, total RNA was extracted with “MiniBEST Universal RNA Extraction Kit” (Cat. Number 9767, Takara) according to the manufacturer's instructions. [cDNA Synthesis by One Step RT-PCR] […] NO: 37); HIF-exon 8_reverse: (5'→3') […] [Nested qPCR] […] NO: 39); HIF-exon 2n_reverse (5'→3') […] NO: 40); HIF-exon 3n_forward (5'→3') […] NO: 41); HIF-exon 3n_reverse (5'→3') […] NO: 42); HIF-exon 4n_forward (5'→3') […] NO: 43); HIF-exon 4n_reverse (5'→3') […] NO: 44); HIF-exon 5n_forward (5'→3') […] NO: 45); HIF-exon 5n_reverse (5'→3') […] NO: 46). […] “HIF-ASO 6” was evaluated for its ability to induce a change in HIF-1α mRNA in HeLa cells by nested qPCR according to the procedures in “HIF-1α Example 4” unless noted otherwise. [cDNA Synthesis by One Step RT-PCR] […] NO: 50); HIF-exon 8(2) reverse: (5'→3') […] “HIF-ASO 12” was evaluated by HIF-1α nested qPCR for its ability to induce a change in the HIF-1a mRNA in HeLa cells as described in “HIF-1a Example 3”, unless noted otherwise. HeLa cells were treated with “HIF-ASO 12” for 6 hours, and then subjected to total RNA extraction.

[1] = system: sodium current in PC3 cells; assay: CoroNa assay of sodium current in PC3 cells; assay type: cell-based, human; conditions: 30 hours
Protocol: Cellular sodium current is measured by patch clamp. As sodium ions enter cell, the intra-cellular sodium ion level increases. The intra-cellular sodium level can be probed using a sodium ion sensitive dye. “CoroNa Green” is a dye with a sodium ion chelator of crown ether type. Upon chelation with a sodium ion, “CoroNa Green” emits green fluorescence. “CoroNa Green” has been used to indirectly measure the intra-cellular sodium level. […] [Proc. Natl. Acad. Sci. USA vol 106(38), 16145-16150 (2009)]
PC3 cells are known to abundantly express the human SCN9A mRNA, although there are other SCN subtypes concomitantly expressed. [Br J. Pharmacol. vol 156, 420-431 (2009)] Thus an inhibition of SCN9A mRNA expression may lead to a considerable reduction of the sodium current in PC3 cells, if the sodium ion current by the Nav1.7 sodium channel subtype occupies a marked portion of the total sodium ion current in PC3 cells. It is note that the SCN9A mRNA encodes the Nav1.7 sodium channel subtype.
“SCN-ASO 7” was evaluated for its ability to inhibit the sodium ion current in PC3 cells using “CoroNa Green” as follows.
[ASO Treatment] PC3 cells grown in 35 mm culture dish containing 2 mL F-12K medium were treated with “SCN-ASO 7” at 0 zM (negative control), 100 zM or 1 aM.
[CoroNa Assay] 30 hours later, the cells were washed with 2 mL HBSS (Hank's Balanced Salt Solution, Cat. Number 14025-092, Life Technologies), and then charged with 2 mL fresh HBSS. Then the cells were treated with 5 μM “CoroNa Green” (Cat. Number C36676, Life Technologies) at 37° C. 30 min later, the cells were washed 2× with 2 mL HBSS, and charged with 2 mL fresh HBSS. The culture dish was mounted on an Olympus fluorescence microscope equipped with a digital video camera to continuously capture the green fluorescence images of the cells. The cells were acutely treated with 100 mM NaCl, and then the changes in fluorescence cellular images were digitally recorded over a period of 3 min. There were about 4 cells per frame on average. The fluorescence intensities from each individual cell were traced at the resolution of a second. The traces of the intracellular fluorescence intensities from individual cells were overlaid and averaged at each time point. The average of the traces from the individual cells of each ASO concentration were plotted as provided in FIG. 30A using ImageJ program (version 1.50i, NIH). The average fluorescence intensity trace was taken as the individual intra-cellular sodium concentration trace for the cells treated with “SCN-ASO 7” at 0 (negative control), 100 or 1,000 zM.
“SCN-ASO 3” was evaluated for its ability to inhibit the sodium current in PC3 cells using “CoroNa Green” according to the protocol described in “SCN9A Example 5”, unless noted otherwise.
“SCN-ASO 8” was evaluated for its ability to inhibit the sodium current in PC3 cells using “CoroNa Green” according to the protocol described in “SCN9A Example 3”, unless noted otherwise.

For “Fethoc-A(5)GA-G(6)CC(1O2)-TCA-A(5)AA(5)-T-NH2 (antisense AGAGCCTCAAAAT; Fethoc N-cap, C-terminal amide, chemistry not fully specified) [DMD-ASO 1]”, the “in vivo potency relative to the PMO ASO eteplirsen (30 mg/Kg per week)” value (full-length dystrophin; 200 pmole/Kg corresponds to ca 1 μg/Kg, different species and exon) was ~30,000 times and the “full-length dystrophin expression relative to the WT negative control group (IHC)” value (full-length dystrophin; mdx mice, 200 pmole/Kg 2× per week, Week 30) was > 80%.
With “Fethoc-A(6)GA-A(6)CT-TA(6)T-CC(1O2)T-A(6)CT-TA(6)-NH2 (AGAACTTATCCTACTTA; splice-switching; all peptide nucleic acid (PNA), [A(6)] at 1, 4, 8, 13, 17, [C(1O2)] at 11, 5' {Fethoc}, 3' {NH2}; peptide nucleic acid backbone) [HIF-ASO 6]” the “decrease of individual HIF-1α exon levels (SYBR Green)” value (from here on “decrease … (SYBR Green)”) (HIF-1α mRNA; HeLa cells, 10 zM) was 35%, the “decrease … (SYBR Green)” value (HIF-1α mRNA; HeLa cells, 100 zM) was ~30% and the “decrease … (SYBR Green)” value (HIF-1α mRNA; HeLa cells, 1,000 zM (1 aM)) was ~45%.
In the case of “Fethoc-AC(1O2)T-TA(5)C-G(6)CA-A(5)AA(5)-AC(1O2)A-A(5)-NH2 (ACTTACGCAAAAACAA; all peptide nucleic acid (PNA), [C(1O2)] at 2, 14, [A(5)] at 5, 10, 12, 16, [G(6)] at 7, 5' {Fethoc}, 3' {NH2}; peptide nucleic acid written N to C) [SCN-ASO 7]”, the “decrease of sodium current (CoroNa)” value ([1]; PC3 cells, 100 zM) is reported as “no notable decrease”, the “decrease of sodium current / sodium channel activity (CoroNa)” value ([1]; PC3 cells, 1,000 zM) is reported as 37% and the “average cellular fluorescence intensity (CoroNa Green)” value ([1]; PC3 cells, 1,000 zM, at 100 sec after 100 mM NaCl) is reported as 51.47 arbitrary unit.
With “Fethoc-GA(5)A-C(1O2)TT-A(5)TC-CTA(5)-C(1O2)T-NH2 (GAACTTATCCTACT; splice-switching; all peptide nucleic acid (PNA), [A(5)] at 2, 7, 12, [C(1O2)] at 4, 13, 5' {Fethoc}, 3' {NH2}; peptide nucleic acid backbone) [HIF-ASO 2]” the “decrease … (SYBR Green)” value (HIF-1α mRNA; HeLa cells, 1,000 zM (1 aM)) was “not different from the exon levels in the cells without ASO treatment”.
